Source: patent publication US20250318523A1, “Use of Pinenes to Improve Localized Insecticide Injections Targeting Western Drywood Termite (Blattodea: Kalotermitidae)” (THE REGENTS OF THE UNIVERSITY OF CALIFORNIA, priority 2024, published 2025)

What was measured:
I. minor workers [1] = experiment: Insecticide bioassay for fipronil (channel arena); assay type: in vivo; conditions: Incisitermes minor, 336 h; day 14; 10 μL of 0.06% aqueous fipronil suspension on 1.43 cm^2; pinene 100 μL of 0.1 mg/mL in methanol; read-out: final cumulative mortality
Source text: (§1) Termites. Western drywood termites, I. minor, were extracted from several pieces of infested wood collected in Riverside, CA. Each colony was stored in a plastic container (30.5 by 21.6 by 6.4 cm) with small pieces of basswood (150 by 100 by 3.2 mm; Midwest Products Co., Inc., Darien, IL) as a food source. A couple of small openings were made on the sides of the containers for ventilation, and the containers were placed within a larger plastic box (40.6 cm by 22.9 cm by 27.9 cm) containing a saturated NaCl solution to maintain 75% relative humidity (RH) within the larger box (Winston and Bates 1960). The stock colony boxes were kept in a growth chamber (Thermo Fisher Scientific, Waltham, MA) at 26° C. without light. […]
Insecticide Bioassay. The effect of pinenes on the efficacy of insecticide residue was evaluated using the channel arena bioassay design (FIG. 2). […]
Two different control groups were included in the experimental design: one without insecticide, and the other with insecticide. […] Termites were recorded as dead (no movement) or alive. […]
(§2) Statistical Analyses. […] The data were first analyzed with a Kaplan-Meier survival analysis for the insecticide bioassays. […]

I. minor workers [2] = experiment: Channel arena bioassay; assay type: in vivo, Incisitermes minor; conditions: after 24 hours; pinene 1.3 μg/cm2 (100 μL of 0.1 mg/mL in methanol); 20 termites, 10 replicates
Source text: as §1
To establish the “initial-aggregation zone,” twenty termites were confined to a 5-cm zone at one end of the channel for 24 hours (h) using a cotton plug (FIG. 1). […] After 24 hours (h), the number of termites in the treatment zone was counted under red light (110 lux, Tacklife; Levittown, NY) to minimize any disruption to the termites during observation (Cabrera and Rust 1996). […]
as §2

I. minor workers [3] = experiment: T-maze bioassay; assay type: in vivo, Incisitermes minor; conditions: at 24 h; for percent of termites found in the treated choice block (mean±SEM): block treated with 100 μL of 0.1 mg/mL pinene in methanol; for percent of termites found in the untreated choice block (mean±SEM): other block treated with 100 μL of 0.1 mg/mL pinene in methanol
Source text: Termites. Western drywood termites, I. minor, were extracted from several pieces of infested wood collected in Riverside, CA. Each colony was stored in a plastic container (30.5 by 21.6 by 6.4 cm) with small pieces of basswood (150 by 100 by 3.2 mm; Midwest Products Co., Inc., Darien, IL) as a food source. A couple of small openings were made on the sides of the containers for ventilation, and the containers were placed within a larger plastic box (40.6 cm by 22.9 cm by 27.9 cm) containing a saturated NaCl solution to maintain 75% relative humidity (RH) within the larger box (Winston and Bates 1960). The stock colony boxes were kept in a growth chamber (Thermo Fisher Scientific, Waltham, MA) at 26° C. without light. To minimize the chance of using termites that were damaged during the collection process, the collected termites were left undisturbed for at least 7 days (d), and the surviving termites at the end of this period were used in the experiments. One or two different populations were randomly chosen to set up each experimental trial. Only worker termites (approximately 5 mm in length) were used for the experiments.
Chemicals. Two monoterpenes, α-pinene (98%, Sigma-Aldrich, St. Louis, MO) and (−)-β-pinene (>99%, Sigma-Aldrich), were individually tested for their effects on drywood termite behavior. Methanol was used to dissolve the pinenes at 0.1 mg/mL concentration. Clean methanol served as a solvent-only control.
T-maze Bioassay. A T-maze bioassay was developed to study the effects of α- or β-pinene on the choice behavior of I. minor within a simplified termite gallery system. The T-maze consisted of three basswood blocks (2.54 cm by 2.54 cm by 10.16 cm). One block served as a central acclimation block, while the other two served as lateral choice blocks (FIG. 2). All blocks were drilled along the centerline to form longitudinal tunnels (8.9 cm in depth, 0.95 cm in diameter), which ended near the opposite end of the block (about 1.2 cm away from the opposite end of the block). For the acclimation block, a through hole (0.95 cm in diameter) was drilled to add a cross tunnel, perpendicularly intersecting the longitudinal tunnel at its closed end. This cross tunnel provided connection points between the acclimation block and two choice blocks.
Twenty termites from the stock colony were placed in the tunnel of the acclimation block and confined there for 24 hours (h) by sealing the holes with rubber stoppers. Two choice blocks were randomly assigned for treatment (treated block) or no treatment (untreated block). […] After 24 hours, T-mazes were disassembled, and numbers of termites in each of the three blocks (two choice blocks and one acclimation block) were recorded. […]

SMILES	mortality at 100 µg/mL (I. minor workers [1])	percent of termites found in the treatment zone (mean±SEM) (I. minor workers [2])	percent of termites found in the treated choice block (mean±SEM) (I. minor workers [3])	percent of termites found in the untreated choice block (mean±SEM) (I. minor workers [3])
N#Cc1nn(-c2c(Cl)cc(C(F)(F)F)cc2Cl)c(N)c1[S+]([O-])C(F)(F)F (stereo not shown) [fipronil only, fipronil]	76.5 ± 5.7%			
CC1=CCC2CC1C2(C)C (stereo not drawn) [α-pinene]		55±9.3%	45.5±14.1%	7.0±7.0%
C=C1CC[C@H]2C[C@@H]1C2(C)C [β-pinene, (−)-β-pinene]		58±6.3%	54.5±14.8%	4.5±3.5%
